In patent US10413575B2, “Pharmaceutical composition for preventing or treating inflammatory diseases, containing Lactococcus chungangensis as active ingredient” (CHUNG-ANG UNIVERSITY INDUSTRY-ACADEMIC COOPERATION …, priority 2015, dated 2019):

How the values were obtained:
[1] = system: DNCB-induced atopic NC/Nga mice; assay: Visual evaluation of DNCB-induced atopic NC/Nga mice; format: in vivo; set-up: key to dryness/scarring / edema / erosion/excoriation / erythema/hemorrhage: 0=absence; 1=mild; 2=moderate; 3=severe; key to Total severity score / Mean severity score: sum of 4 signs each 0=absence to 3=severe; details: skin application
Description: (§1) Mice were divided into a total of five groups, a non-treatment (normal) group, a DNCB group, a Tacrolimus skin application group, a Lactococcus chungangensis skin application group, and a Lactococcus chungangensis oral administration group. Then, 0.1 g of hair removal cream was applied on the back and neck of BALB/c and NC/Nga mice, respectively, and hairs were removed using soft tissue paper to avoid wounds. After the mice were left for 5 days to heal minor wounds, 1% DNCB 200 (acetone:olive oil=3:1) was applied to the back and ears three times a week for two weeks to induce atopy. After atopy induction, Lactococcus chungangensis was applied to diseased parts at 10^9 cell/mouse twice a week for four weeks, while Lactococcus chungangensis was administered to oral cavity at 10^9 cell/mouse twice a week for four weeks. For efficacy comparison, Tacrolimus in use as an atopy medicine was used. Tacrolimus was applied to atopy diseased parts at 100 mg/kg twice a week for four weeks. Visual evaluation was conducted to determine a treatment effect in each of a Tacrolimus skin application group, a Lactococcus chungangensis skin application group, and a Lactococcus chungangensis oral administration group. Visual evaluation was conducted by evaluating the skin condition in four stages (0=absence, 1=mild, 2=moderate, 3=severe) according to the severity of erythema/hemorrhage, dryness/scarring, edema, and erosion/excoriation as evaluation indexes. A severity score of about 12 point or more was determined that the atopy symptoms reach the highest peak. The results are shown in Tables 1 to 5 for BALB/c mice, and Tables 6 to 10 for NC/Nga mice.

[2] = system: IL-4, IL-5, IL-12, IFN-γ, TNF-α, and TARC; assay: Chemokine and cytokine protein levels in serum (ELISA); format: in vivo; details: BALB/c and NC/Nga, skin application, vs DNCB-induced atopy mice
Description: Mice were divided into a total of five groups, a non-treatment (normal) group, a DNCB group, a Tacrolimus skin application group, a Lactococcus chungangensis skin application group, and a Lactococcus chungangensis oral administration group. Then, 0.1 g of hair removal cream was applied on the back and neck of BALB/c and NC/Nga mice, respectively, and hairs were removed using soft tissue paper to avoid wounds. After the mice were left for 5 days to heal minor wounds, 1% DNCB 200 (acetone:olive oil=3:1) was applied to the back and ears three times a week for two weeks to induce atopy. After atopy induction, Lactococcus chungangensis was applied to diseased parts at 10^9 cell/mouse twice a week for four weeks, while Lactococcus chungangensis was administered to oral cavity at 10^9 cell/mouse twice a week for four weeks. […] Tacrolimus was applied to atopy diseased parts at 100 mg/kg twice a week for four weeks.
In addition, the protein level changes of IL-4, IL-5, IL-12, IFN-γ, TNF-α, and TARC in the serum isolated from the blood taken from the heart of each of BALB/c mice and NC/Nga mice were measured using IL-4 Quantikine Immunoassay Kit, IL-5 Quantikine Immunoassay Kit, IL-12 Quantikine Immunoassay Kit, TNF-α Quantikine Immunoassay Kit, CCL17/TARC Quantikine Immunoassay Kit (R&D Systems, Minneapolis, Minn., USA), respectively, and the absorbance was determined at 450 nm by using a microplate reader.

[3] = system: IL-4, IL-5, IL-12, IFN-γ, TNF-α, and TARC; assay: Chemokine and cytokine mRNA expression in skin tissues (reverse transcription PCR); format: in vivo, BALB/c mice and NC/Nga mice; details: skin application
Description: After the ending of the treatment of the BALB/c and NC/Nga mice with test materials, the BALB/c and NC/Nga mice of the DNCB-induced atopic control group, the Tacrolimus skin application group, the Lactococcus chungangensis skin application group, and the Lactococcus chungangensis oral administration group were sacrificed. The skin tissues were extracted, and Trizol was added thereto, and the skin tissues were homogenized using a homogenizer until dissolved, and RNA was extracted from the homogenized tissues. Specifically, Trizol was added to the skin tissues extracted from BALB/c mice and NC/Nga mice of each of the control and test groups, and chloroform (CHCl3) was added thereto and mixed. Then, the mixture was allowed to stand for 10 minutes and centrifuged. The centrifuged supernatant was recovered, mixed with the same amount of 2-propanol, allowed to stand for 10 minutes, centrifuged again, washed with 80% EtOH, and dried, to thereby obtain RNA. cDNA was obtained by reverse transcription PCR using AMV reverse transcriptase, dNTP (Promega, Madison, Wis.), EX Taq DNA polymerase (Takara Shuzou, Kyoto, Japan), and the obtained cDNA was used to investigate the mRNA expression levels of atopic-related chemokines and cytokines. Specifically, PCR was performed using the primer pairs described in Table 5 below for chemokines and cytokines IL-4, IL-5, IL-12, IFN-γ, TNF-α, and TARC and control GAPDH, respectively. The PCR was performed for 30 cycles of 1 minute at 94° C., 30 seconds at 95° C., 30 seconds at 55-65° C., and 3 minutes at 70° C.

[4] = system: IgE; assay: Immunoglobulin IgE measurement in serum (ELISA), NC/Nga mice; format: in vivo; details: skin application
Description: (§2) After the ending of the treatment with test materials, BALB/c and NC/Nga mice of the five groups were sacrificed, and blood was collected from the heart. Serum was isolated from the blood to measure IgE. […] Absorbance was measured at 450 nm using a microplate reader to determine IgE protein level.

[5] = system: DNCB-induced atopic BALB/c mice; assay: Visual evaluation of DNCB-induced atopic BALB/c mice; format: in vivo; set-up: key to dryness/scarring / edema / erosion/excoriation / erythema/hemorrhage: 0=absence; 1=mild; 2=moderate; 3=severe; key to Total severity score / Mean severity score: sum of 4 signs each 0=absence to 3=severe; details: skin application
Description: as §1

[6] = system: DNCB-induced atopic BALB/c mice and NC/Nga mice; assay: Histopathological test (H&E) of dorsal skin tissue and ears; format: in vivo; details: skin application, vs DNCB-induced atopic mice
Description: Mice were divided into a total of five groups, a non-treatment (normal) group, a DNCB group, a Tacrolimus skin application group, a Lactococcus chungangensis skin application group, and a Lactococcus chungangensis oral administration group. Then, 0.1 g of hair removal cream was applied on the back and neck of BALB/c and NC/Nga mice, respectively, and hairs were removed using soft tissue paper to avoid wounds. After the mice were left for 5 days to heal minor wounds, 1% DNCB 200 (acetone:olive oil=3:1) was applied to the back and ears three times a week for two weeks to induce atopy. After atopy induction, Lactococcus chungangensis was applied to diseased parts at 10^9 cell/mouse twice a week for four weeks, while Lactococcus chungangensis was administered to oral cavity at 10^9 cell/mouse twice a week for four weeks. For efficacy comparison, Tacrolimus in use as an atopy medicine was used. Tacrolimus was applied to atopy diseased parts at 100 mg/kg twice a week for four weeks.
After the treatment of test materials, the dorsal skin tissue (1.5×1.5 cm) and ears of BALB/c mice and NC/Nga mice of the test and control groups were taken off, and fixed in 10% paraformaldehyde for 24 hours. The tissues were sufficiently hardened in paraffin, and sliced into five pieces to prepare slide glasses. […]

[7] = system: IgE; assay: Immunoglobulin IgE measurement in serum (ELISA), BALB/c mice; format: in vivo; details: skin application, compared with the DNCB-induced group
Description: as §2

C=CC[C@@H]1/C=C(\C)C[C@H](C)C[C@H](OC)[C@H]2O[C@@](O)(C(=O)C(=O)N3CCCC[C@H]3C(=O)O[C@H](/C(C)=C/[C@@H]3CC[C@@H](O)[C@H](OC)C3)[C@H](C)[C@@H](O)CC1=O)[C@H](C)C[C@@H]2OC [Tacrolimus]
Mean severity score ([1]; 1 Week): 5.5 | Total severity score ([1]; 1 Week, evaluation 1): 5 | dryness/scarring ([1]; 1 Week, evaluation 1): 2 | edema ([1]; 1 Week, evaluation 1): 1 | erosion/excoriation ([1]; 1 Week, evaluation 1): 1 | erythema/hemorrhage ([1]; 1 Week, evaluation 1): 1 | Total severity score ([1]; 1 Week, evaluation 2): 6 | dryness/scarring ([1]; 1 Week, evaluation 2): 2 | edema ([1]; 1 Week, evaluation 2): 1 | erosion/excoriation ([1]; 1 Week, evaluation 2): 2 | erythema/hemorrhage ([1]; 1 Week, evaluation 2): 1 | Mean severity score ([1]; 2 Weeks): 10.5 | Total severity score ([1]; 2 Weeks, evaluation 3): 11 | dryness/scarring ([1]; 2 Weeks, evaluation 3): 3 | edema ([1]; 2 Weeks, evaluation 3): 3 | erosion/excoriation ([1]; 2 Weeks, evaluation 3): 2 | erythema/hemorrhage ([1]; 2 Weeks, evaluation 3): 3 | Total severity score ([1]; 2 Weeks, evaluation 4): 10 | dryness/scarring ([1]; 2 Weeks, evaluation 4): 3 | edema ([1]; 2 Weeks, evaluation 4): 2 | erosion/excoriation ([1]; 2 Weeks, evaluation 4): 2 | erythema/hemorrhage ([1]; 2 Weeks, evaluation 4): 3 | Mean severity score ([1]; 3 Weeks): 11.5 | Total severity score ([1]; 3 Weeks, evaluation 5): 12 | dryness/scarring ([1]; 3 Weeks, evaluation 5): 3 | edema ([1]; 3 Weeks, evaluation 5): 3 | erosion/excoriation ([1]; 3 Weeks, evaluation 5): 3 | erythema/hemorrhage ([1]; 3 Weeks, evaluation 5): 3 | Total severity score ([1]; 3 Weeks, evaluation 6): 11 | dryness/scarring ([1]; 3 Weeks, evaluation 6): 3 | edema ([1]; 3 Weeks, evaluation 6): 2 | erosion/excoriation ([1]; 3 Weeks, evaluation 6): 3 | erythema/hemorrhage ([1]; 3 Weeks, evaluation 6): 3 | Mean severity score ([1]; 4 Weeks): 11.5 | Total severity score ([1]; 4 Weeks, evaluation 7): 12 | dryness/scarring ([1]; 4 Weeks, evaluation 7): 3 | edema ([1]; 4 Weeks, evaluation 7): 3 | erosion/excoriation ([1]; 4 Weeks, evaluation 7): 3 | erythema/hemorrhage ([1]; 4 Weeks, evaluation 7): 3 | Total severity score ([1]; 4 Weeks, evaluation 8): 11 | dryness/scarring ([1]; 4 Weeks, evaluation 8): 3 | edema ([1]; 4 Weeks, evaluation 8): 3 | erosion/excoriation ([1]; 4 Weeks, evaluation 8): 2 | erythema/hemorrhage ([1]; 4 Weeks, evaluation 8): 3 | Mean severity score ([1]; 5 Weeks): 11 | Total severity score ([1]; 5 Weeks, evaluation 9): 11 | dryness/scarring ([1]; 5 Weeks, evaluation 9): 3 | edema ([1]; 5 Weeks, evaluation 9): 2 | erosion/excoriation ([1]; 5 Weeks, evaluation 9): 3 | erythema/hemorrhage ([1]; 5 Weeks, evaluation 9): 3 | Total severity score ([1]; 5 Weeks, evaluation 10): 11 | dryness/scarring ([1]; 5 Weeks, evaluation 10): 3 | edema ([1]; 5 Weeks, evaluation 10): 3 | erosion/excoriation ([1]; 5 Weeks, evaluation 10): 2 | erythema/hemorrhage ([1]; 5 Weeks, evaluation 10): 3 | Mean severity score ([1]; 6 Weeks): 9 | Total severity score ([1]; 6 Weeks, evaluation 11): 10 | dryness/scarring ([1]; 6 Weeks, evaluation 11): 3 | edema ([1]; 6 Weeks, evaluation 11): 2 | erosion/excoriation ([1]; 6 Weeks, evaluation 11): 2 | erythema/hemorrhage ([1]; 6 Weeks, evaluation 11): 3 | Total severity score ([1]; 6 Weeks, evaluation 12): 8 | dryness/scarring ([1]; 6 Weeks, evaluation 12): 2 | edema ([1]; 6 Weeks, evaluation 12): 2 | erosion/excoriation ([1]; 6 Weeks, evaluation 12): 2 | erythema/hemorrhage ([1]; 6 Weeks, evaluation 12): 2 | protein level of IFN-γ [2]: significantly reduced | protein level of IL-4 [2]: significantly reduced | protein level of IL-5 [2]: significantly reduced | protein level of IL-12 [2]: significantly reduced | protein level of TARC [2]: significantly reduced | protein level of TNF-α [2]: significantly reduced | mRNA expression level of IFN-γ [3]: reduced | mRNA expression level of IL-4 [3]: reduced | mRNA expression level of IL-5 [3]: reduced | mRNA expression level of IL-12 [3]: reduced | mRNA expression level of TARC [3]: reduced | mRNA expression level of TNF-α [3]: reduced | inhibition of IgE production [4]: 62% | skin condition observed by the naked eye [5]: remarkably improved | Mean severity score ([5]; 1 Week): 5 | Total severity score ([5]; 1 Week, evaluation 1): 4 | dryness/scarring ([5]; 1 Week, evaluation 1): 1 | edema ([5]; 1 Week, evaluation 1): 0 | erosion/excoriation ([5]; 1 Week, evaluation 1): 1 | erythema/hemorrhage ([5]; 1 Week, evaluation 1): 2 | Total severity score ([5]; 1 Week, evaluation 2): 6 | dryness/scarring ([5]; 1 Week, evaluation 2): 1 | edema ([5]; 1 Week, evaluation 2): 1 | erosion/excoriation ([5]; 1 Week, evaluation 2): 2 | erythema/hemorrhage ([5]; 1 Week, evaluation 2): 2 | Mean severity score ([5]; 2 Weeks): 8 | Total severity score ([5]; 2 Weeks, evaluation 3): 8 | dryness/scarring ([5]; 2 Weeks, evaluation 3): 2 | edema ([5]; 2 Weeks, evaluation 3): 2 | erosion/excoriation ([5]; 2 Weeks, evaluation 3): 2 | erythema/hemorrhage ([5]; 2 Weeks, evaluation 3): 2 | Total severity score ([5]; 2 Weeks, evaluation 4): 8 | dryness/scarring ([5]; 2 Weeks, evaluation 4): 2 | edema ([5]; 2 Weeks, evaluation 4): 2 | erosion/excoriation ([5]; 2 Weeks, evaluation 4): 2 | erythema/hemorrhage ([5]; 2 Weeks, evaluation 4): 2 | Mean severity score ([5]; 3 Weeks): 10.5 | Total severity score ([5]; 3 Weeks, evaluation 5): 11 | dryness/scarring ([5]; 3 Weeks, evaluation 5): 2 | edema ([5]; 3 Weeks, evaluation 5): 3 | erosion/excoriation ([5]; 3 Weeks, evaluation 5): 3 | erythema/hemorrhage ([5]; 3 Weeks, evaluation 5): 3 | Total severity score ([5]; 3 Weeks, evaluation 6): 10 | dryness/scarring ([5]; 3 Weeks, evaluation 6): 2 | edema ([5]; 3 Weeks, evaluation 6): 2 | erosion/excoriation ([5]; 3 Weeks, evaluation 6): 3 | erythema/hemorrhage ([5]; 3 Weeks, evaluation 6): 3 | Mean severity score ([5]; 4 Weeks): 9.5 | Total severity score ([5]; 4 Weeks, evaluation 7): 10 | dryness/scarring ([5]; 4 Weeks, evaluation 7): 3 | edema ([5]; 4 Weeks, evaluation 7): 2 | erosion/excoriation ([5]; 4 Weeks, evaluation 7): 3 | erythema/hemorrhage ([5]; 4 Weeks, evaluation 7): 3 | Total severity score ([5]; 4 Weeks, evaluation 8): 9 | dryness/scarring ([5]; 4 Weeks, evaluation 8): 1 | edema ([5]; 4 Weeks, evaluation 8): 2 | erosion/excoriation ([5]; 4 Weeks, evaluation 8): 3 | erythema/hemorrhage ([5]; 4 Weeks, evaluation 8): 3 | Mean severity score ([5]; 5 Weeks): 6 | Total severity score ([5]; 5 Weeks, evaluation 9): 7 | dryness/scarring ([5]; 5 Weeks, evaluation 9): 2 | edema ([5]; 5 Weeks, evaluation 9): 2 | erosion/excoriation ([5]; 5 Weeks, evaluation 9): 1 | erythema/hemorrhage ([5]; 5 Weeks, evaluation 9): 2 | Total severity score ([5]; 5 Weeks, evaluation 10): 5 | dryness/scarring ([5]; 5 Weeks, evaluation 10): 2 | edema ([5]; 5 Weeks, evaluation 10): 1 | erosion/excoriation ([5]; 5 Weeks, evaluation 10): 1 | erythema/hemorrhage ([5]; 5 Weeks, evaluation 10): 1 | Mean severity score ([5]; 6 Weeks): 2.5 | Total severity score ([5]; 6 Weeks, evaluation 11): 4 | dryness/scarring ([5]; 6 Weeks, evaluation 11): 1 | edema ([5]; 6 Weeks, evaluation 11): 1 | erosion/excoriation ([5]; 6 Weeks, evaluation 11): 1 | erythema/hemorrhage ([5]; 6 Weeks, evaluation 11): 1 | Total severity score ([5]; 6 Weeks, evaluation 12): 1 | dryness/scarring ([5]; 6 Weeks, evaluation 12): 1 | edema ([5]; 6 Weeks, evaluation 12): 0 | erosion/excoriation ([5]; 6 Weeks, evaluation 12): 0 | erythema/hemorrhage ([5]; 6 Weeks, evaluation 12): 0 | dead skin cell exfoliation, epidermal hypertrophy, and hyperkeratosis [6]: significantly reduced | inhibition of IgE production [7]: 48%
